Measured values reported in patent US20030104099A1, “Mineral delivery systems and methods” (priority 2001, published 2003).
Read-outs that look alike come from different tables or passages of the source.

Tests used:
[1] = for solids in 25 grams of the filtered solution after drying: 2 grams acid + 2 grams calcium carbonate in 50 grams distilled water, four hours, 25 grams dried; for water solubility at ambient: distilled water
Protocol: To a 250 ml beaker, 2 grams of adipic acid powder is dissolved in 50 grams of distilled water. Then, 2 grams of calcium carbonate powder (Vicron 25-11 FG from Specilaty Minerals, Inc.) are added. […] After four hours, the slurry is filtered through a filter paper.
To a 250 ml beaker, 2 grams of tartaric acid powder is dissolved in 50 grams of distilled water. Then, 2 grams of calcium carbonate powder are added. […] After four hours, the slurry is filtered through a filter paper.
To a 250 ml beaker, 2 grams of malic acid powder is dissolved in 50 grams of distilled water. Then, 2 grams of calcium carbonate powder are added. […] After four hours, the slurry is filtered through a filter paper.
To a 250 ml beaker, 2 grams of citric acid powder is dissolved in 50 grams of distilled water. Then, 2 grams of calcium carbonate powder are added. […] After four hours, the slurry is filtered through a filter paper.
To a 250 ml beaker, 2 grams of fumaric acid powder is dissolved in 50 grams of distilled water. Then, 2 grams of calcium carbonate powder are added. […] After four hours, the slurry is filtered through a filter paper.

[2] = 120 grams distilled water, 3 grams acid, 39° C., 50 rpm, 30 minutes mixing, dried at 110° C.

O=C([O-])/C=C/C(=O)[O-].[Ca+2] [Calcium fumarate]
solids in 25 grams of the filtered solution after drying [1]: 0.6 grams
water solubility at ambient [1]: 2.4%
solubility in methanol (solids from ALPHA GRANDE bubble gum base fluid): not soluble
solubility in methanol (solids from DREYCO gum base fluid): not soluble
soluble calcium salt contained in the fluid ([2]; 75 grams ALPHA GRANDE bubble gum base): 1.19%
soluble calcium salt contained in the fluid ([2]; 75 grams DREYCO gum base): 1.46%

O=C([O-])CC(O)C(=O)[O-].[Ca+2] (stereo not drawn) [Calcium malate]
solids in 25 grams of the filtered solution after drying [1]: 0.5 grams
water solubility at ambient [1]: 2.0%

O=C([O-])C(O)C(O)C(=O)[O-].[Ca+2] (stereo not drawn) [Calcium tartrate]
solids in 25 grams of the filtered solution after drying [1]: 0.15 grams
